Data on 15 molecules can be found in PMC6259918, “Antitrypanosomal Activity of Novel Benzaldehyde-Thiosemicarbazone Derivatives from Kaurenoic Acid ^†” (Molecules, 2011).

Read-outs that look alike come from different tables or passages of the source.

In series [1] the test system is epimastigote forms of T. cruzi (Y strain). Description: Antitrypanosomal assay. Type of series: cell-based, Trypanosoma cruzi. The note with it: for SI (selectivity index): SI: CC50 LLMCK2 / IC50 epimastigote; for IC50: mean ± SD. The method, then:
Stock solutions of the synthetic compounds and kaurenoic acid (5, 10, 50, and 100 µg/mL) were prepared in dimethylsulfoxide with their final concentrations not exceeding 1.0%. For the assay, epimastigote forms of T. cruzi (Y strain) were harvested during the exponential phase of growth, resuspended in liver infusion tryptose broth supplemented with 10% inactivated fetal bovine serum (Gibco Invitrogen Corporation, New York, NY, USA) and plated on 24-well plates at a concentration of 1 × 10^6 cells/mL. One milliliter of diluted compounds were included in each well and incubated for 96 h at 28 °C. Cell density was determined by counting the parasites in a hemocytometer chamber (Improved Double Neubauer) under a light microscope. All assays were carried out twice, in duplicate, on separate occasions.

A short description of series [2]: Cytotoxicity assay (sulforhodamine B). The series is classed as cell-based. Conditions: rhesus monkey, LLMCK2 cells, 96 h incubation, mean ± SD. The method, then:
The cytotoxic effect was evaluated against LLMCK2 cells in 96-well plates. A suspension of 2.5 × 10^4 cells was added to each well and left to grow as a monolayer for 24 h at 37 °C in a 5% CO2/air mixture. After this period, different concentrations of the synthetic compounds and kaurenoic acid (10 to 100 µg/mL) were added to the wells, and the plate was incubated for 96 h under the same conditions described above. The cells were fixed in 10% trichloroacetic acid at 4 °C for 1 h, washed five times with distilled water, and allowed to dry at room temperature. A solution of 4% sulforhodamine B (in 1% acetic acid) was added to each well, and the plate was kept protected from light for 30 min at 4 °C. The wells were then washed four times with 1% acetic acid, an aliquot (150 µL) of 10 mM Tris-base was added, and the aliquot was homogenized for 15 min. The absorbance was read at 530 nm in a microplate spectrophotometer, and data were calculated as the percentage of inhibition of growth. A concentration for 50% cellular toxicity (CC50) was defined as the concentration that reduced the optic density of treated cells by 50% relative to untreated cells.

Where [3] appears, read: Trypanosoma cruzi, 96 h, epimastigote form of T. cruzi Y strain, 96 h at 28 °C, parasite counting, read-out: Epimastigote IC50.

Molecule `C[C@@]12CCC[C@@](C)(C(=O)O)[C@H]1CC[C@@]13C[C@@H](CC[C@H]12)[C@](C)(N=C=S)C3` [compound 2, ent-Kauren-16α-isothiocyane-16β-methyl-19-oic acid] displayed a melting point of 174 °C. Also, the “SI (selectivity index)” value in series [1] was 0.9. Also, the IC50 in series [1] (Trypanosoma cruzi, 96 h, read-out: Epimastigote IC50, epimastigote form of T. cruzi Y strain, 96 h at 28 °C, parasite counting) was determined as 58.4 µM. Also, in series [1] (read-out: Epimastigote IC50, epimastigote form of T. cruzi Y strain, 96 h at 28 °C, parasite counting), the IC50 worked out at 58.2 ± 0.2 µM. In series [2], this molecule displayed a 50% cytotoxic concentration (CC50) at 96 h of 52 ± 0.3 µM.

Turning to `C[C@@]12CCC[C@@](C)(C(=O)O)[C@H]1CC[C@@]13C[C@@H](CC[C@H]12)[C@](C)(NC(=S)N/N=C/c1ccccc1Cl)C3` [compound 13, N1-(E)-[2-Chlorophenyl]-N4-[ent-kauren-16β-methyl-19-oic acid]-thiosemicarbazone], the melting point was found to be 202.5 °C. Further, the IC50 in series [1] (setting [3]) is 39.4 ± 14.3 µM. The same molecule yielded a CC50 at 96 h in series [2] of 364 ± 11.3 µM.

Molecule `C[C@@]12CCC[C@@](C)(C(=O)O)[C@H]1CC[C@@]13C[C@@H](CC[C@H]12)[C@](C)(NC(=S)N/N=C/c1ccc(Cl)cc1)C3` [compound 15, N1-(E)-[4-Chlorophenyl]-N4-[ent-kauren-16β-methyl-19-oic acid]-thiosemicarbazone] showed a melting point of 223.5 °C. Besides, the IC50 in series [1] (setting [3]) amounted to 14.9 ± 0.3 µM. The CC50 at 96 h in series [2] was determined as 28.7 ± 1.1 µM.

`C[C@@]12CCC[C@@](C)(C(=O)O)[C@H]1CC[C@@]13C[C@@H](CC[C@H]12)[C@](C)(NC(=S)NN)C3` [compound 4, N4-[ent-Kauren-16β-methyl-19-oic acid]-thiosemicarbazide] yielded a melting point of 131 °C. In addition, the “SI (selectivity index)” value in series [1] was 0.7. Besides, the IC50 in series [1] (setting [3]) was found to be 107 ± 13 µM. In series [2], this molecule returned a CC50 at 96 h of 71.4 ± 0.7 µM.

Turning to `C[C@@]12CCC[C@@](C)(C(=O)O)[C@H]1CC[C@@]13C[C@@H](CC[C@H]12)[C@](C)(NC(=S)N/N=C/c1ccc(O)cc1)C3` [compound 8, N1-(E)-[4-Hydroxyphenyl]-N4-[ent-kauren-16β-methyl-19-oic acid]-thiosemicarbazone], the melting point is 191.5 °C. Further, the IC50 in series [1] (setting [3]) amounted to 18.3 ± 4 µM. This molecule registered a CC50 at 96 h in series [2] of 29.5 ± 0.8 µM.

In the case of `CN(C)c1ccc(/C=N/NC(=S)N[C@]2(C)C[C@@]34CC[C@H]5[C@@](C)(CCC[C@@]5(C)C(=O)O)[C@@H]3CC[C@@H]2C4)cc1` [compound 9, N1-(E)-[4-Dimethylaminophenyl]-N4-[ent-kauren-16β-methyl-19-oic acid]-thiosemicarbazone], the melting point stood at 231 °C. Moreover, the IC50 in series [1] (setting [3]) was 79.5 ± 17.9 µM. For the same molecule, the midpoint of cytotoxicity in series [2], the CC50 at 96 h, lay at 248.5 ± 0.6 µM.

Regarding `C=C1C[C@@]23CC[C@H]4[C@@](C)(CCC[C@@]4(C)C(=O)O)[C@@H]2CC[C@@H]1C3` [compound 1, ent-kaur-16-en-19-oic acid, reference compound], the “SI (selectivity index)” value in series [1] was 0.6. Besides, the IC50 in series [1] (setting [3]) came to 102 µM. Besides, it took 59.5 ± 0.1 µM to reach half-maximal cytotoxicity in series [2] (CC50).

As for `C[C@@]12CCC[C@@](C)(C(=O)O)[C@H]1CC[C@@]13C[C@@H](CC[C@H]12)[C@](C)(NC(=S)N/N=C/c1cccc([N+](=O)[O-])c1)C3` [compound 11, N1-(E)-[3-Nitrophenyl]-N4-[ent-kauren-16β-methyl-19-oic acid]-thiosemicarbazone], the melting point was determined as 217 °C. Besides, the IC50 in series [1] (setting [3]) worked out at 19 µM. This molecule also came in with a CC50 at 96 h in series [2] of 104.8 ± 0.4 µM.

In turn, `C[C@@]12CCC[C@@](C)(C(=O)O)[C@H]1CC[C@@]13C[C@@H](CC[C@H]12)[C@](C)(NC(=S)N/N=C/c1ccc([N+](=O)[O-])cc1)C3` [compound 12, N1-(E)-[4-Nitrophenyl]-N4-[ent-kauren-16β-methyl-19-oic acid]-thiosemicarbazone] yielded a melting point of 219.5 °C. In series [1], the “SI (selectivity index)” value was 0.1. Further, the IC50 in series [1] (setting [3]) came to 117 ± 12.8 µM. In series [2], this molecule registered a CC50 at 96 h of 15.2 µM.

`C[C@@]12CCC[C@@](C)(C(=O)O)[C@H]1CC[C@@]13C[C@@H](CC[C@H]12)[C@](C)(NC(=S)N/N=C/c1cccc(Cl)c1)C3` [compound 14, N1-(E)-[3-Chlorophenyl]-N4-[ent-kauren-16β-methyl-19-oic acid]-thiosemicarbazone]: the melting point was 207 °C. The IC50 in series [1] (setting [3]) came out at 23.5 ± 7 µM. In addition, the CC50 at 96 h in series [2] was 56.2 ± 0.4 µM.

In turn, `COc1ccc(/C=N/NC(=S)N[C@]2(C)C[C@@]34CC[C@H]5[C@@](C)(CCC[C@@]5(C)C(=O)O)[C@@H]3CC[C@@H]2C4)cc1` [compound 7, N1-(E)-[4-Methoxyphenyl]-N4-[ent-kauren-16β-methyl-19-oic acid]-thiosemicarbazone] returned a melting point of 214.5 °C. In addition, the IC50 in series [1] (setting [3]) amounted to 16 ± 4.4 µM. The molecule further registered a CC50 at 96 h in series [2] of 78.2 µM.

Consider `C[C@@]12CCC[C@@](C)(C(=O)O)[C@H]1CC[C@@]13C[C@@H](CC[C@H]12)[C@](C)(NC(=S)N/N=C/c1ccccc1)C3` [compound 5, N1-(E)-Phenyl-N4-[ent-kauren-16β-methyl-19-oic acid]-thiosemicarbazone], for which the melting point is 202 °C. Also, the “SI (selectivity index)” value in series [1] was 0.5. Further, the IC50 in series [1] (setting [3]) stood at 68.2 ± 11.2 µM. In series [2], this molecule displayed a CC50 at 96 h of 31.1 ± 1 µM.

The molecule `Cc1ccc(/C=N/NC(=S)N[C@]2(C)C[C@@]34CC[C@H]5[C@@](C)(CCC[C@@]5(C)C(=O)O)[C@@H]3CC[C@@H]2C4)cc1` [compound 6, N1-(E)-[4-Methylphenyl]-N4-[ent-kauren-16β-methyl-19-oic acid]-thiosemicarbazone] displayed a melting point of 223 °C. Further, the IC50 in series [1] (setting [3]) amounted to 23.4 ± 7.7 µM. The molecule also came in with a CC50 at 96 h in series [2] of 122.4 ± 1 µM.

The molecule `C[C@@]12CCC[C@@](C)(C(=O)O)[C@H]1CC[C@@]13C[C@@H](CC[C@H]12)[C@](C)(SC#N)C3` [compound 3, ent-Kauren-16α-thiocyane-16β-methyl-19-oic acid] had a melting point of 165 °C. For the same molecule, the IC50 in series [1] (setting [3]) stood at 43.7 µM. Further, in series [1] (epimastigote form of T. cruzi Y strain, 96 h at 28 °C, parasite counting, read-out: Epimastigote IC50), the IC50 is 43.4 ± 5.6 µM. Besides, in series [2], the CC50 at 96 h came to 103.4 ± 0.7 µM.

Regarding `C[C@@]12CCC[C@@](C)(C(=O)O)[C@H]1CC[C@@]13C[C@@H](CC[C@H]12)[C@](C)(NC(=S)N/N=C/c1ccccc1[N+](=O)[O-])C3` [compound 10, N1-(E)-[2-Nitrophenyl]-N4-[ent-kauren-16β-methyl-19-oic acid]-thiosemicarbazone], the melting point was 211 °C. Besides, in series [1] (setting [3]), the IC50 was 2 ± 1.1 µM. Moreover, half-maximal cytotoxicity in series [2] (CC50 at 96 h) was put at 17.1 ± 0.1 µM.

As a reminder, the melting point is the temperature of the solid-liquid transition. Usually IC50 stands for the midpoint of a concentration-inhibition curve. The term CC50 denotes the concentration at which the toxic effect on the cells reaches its halfway point.
